Test results as given in publication PMC5540273, “Progress towards a public chemogenomic set for protein kinases and a call for contributions” (PLoS ONE, 2017).

Tests used:
Assay in all cases: KINOMEscan competition binding
FAK = FAK (Homo sapiens, UniProt Q05397); settings: read-out: %Inh FAK
LZK = target: T1, LZK (Homo sapiens, UniProt O43283); settings: read-out: %Inh LZK
T1 sequence (O43283 1-966): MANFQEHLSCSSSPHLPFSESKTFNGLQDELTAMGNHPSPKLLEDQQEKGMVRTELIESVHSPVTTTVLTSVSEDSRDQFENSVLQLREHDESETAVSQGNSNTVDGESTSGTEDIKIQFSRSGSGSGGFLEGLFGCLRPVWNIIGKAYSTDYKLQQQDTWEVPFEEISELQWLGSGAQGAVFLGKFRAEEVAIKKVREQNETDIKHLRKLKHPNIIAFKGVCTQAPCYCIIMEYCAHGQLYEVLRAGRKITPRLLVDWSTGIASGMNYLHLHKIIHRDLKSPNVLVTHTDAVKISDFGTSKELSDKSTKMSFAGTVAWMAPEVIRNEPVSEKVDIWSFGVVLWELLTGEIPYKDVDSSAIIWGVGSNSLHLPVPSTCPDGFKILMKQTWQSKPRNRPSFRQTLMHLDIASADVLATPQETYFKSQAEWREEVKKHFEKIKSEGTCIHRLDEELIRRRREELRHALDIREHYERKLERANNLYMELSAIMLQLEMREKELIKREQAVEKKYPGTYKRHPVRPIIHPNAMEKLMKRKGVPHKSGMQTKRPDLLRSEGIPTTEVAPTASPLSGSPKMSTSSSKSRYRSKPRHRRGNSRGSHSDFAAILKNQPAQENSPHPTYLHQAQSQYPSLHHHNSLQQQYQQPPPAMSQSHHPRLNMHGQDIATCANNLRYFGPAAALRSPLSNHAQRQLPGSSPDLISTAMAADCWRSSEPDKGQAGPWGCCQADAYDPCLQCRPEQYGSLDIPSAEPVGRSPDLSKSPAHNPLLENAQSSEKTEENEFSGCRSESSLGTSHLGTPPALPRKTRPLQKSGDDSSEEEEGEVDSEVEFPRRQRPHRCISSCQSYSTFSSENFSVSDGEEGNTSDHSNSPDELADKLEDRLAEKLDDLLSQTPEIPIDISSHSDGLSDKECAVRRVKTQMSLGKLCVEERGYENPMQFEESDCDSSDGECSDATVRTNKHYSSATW

AMPK-alpha1 = AMPK-alpha1 (Homo sapiens, UniProt Q13131); settings: read-out: %Inh AMPK-alpha1
[1] = target: JAK2(JH1domain-catalytic) (Homo sapiens, UniProt O60674); settings: read-out: %Inh JAK2(JH1domain-catalytic)
CHEK1 = target: T2, CHEK1 (Homo sapiens, UniProt O14757); settings: read-out: %Inh CHEK1
T2 sequence (O14757 1-476): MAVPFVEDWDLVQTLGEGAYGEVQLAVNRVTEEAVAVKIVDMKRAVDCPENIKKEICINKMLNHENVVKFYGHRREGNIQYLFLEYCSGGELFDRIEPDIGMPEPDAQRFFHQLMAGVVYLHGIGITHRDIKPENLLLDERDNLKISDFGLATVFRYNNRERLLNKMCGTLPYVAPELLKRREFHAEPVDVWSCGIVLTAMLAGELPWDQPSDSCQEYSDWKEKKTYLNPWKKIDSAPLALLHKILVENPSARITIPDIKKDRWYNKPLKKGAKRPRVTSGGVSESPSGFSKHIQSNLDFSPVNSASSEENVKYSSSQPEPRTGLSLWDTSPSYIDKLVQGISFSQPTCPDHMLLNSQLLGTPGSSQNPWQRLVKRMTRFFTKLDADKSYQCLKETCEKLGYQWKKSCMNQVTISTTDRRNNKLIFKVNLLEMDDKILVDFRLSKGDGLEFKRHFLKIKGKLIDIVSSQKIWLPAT

ERK8 = target: T3, ERK8 (Homo sapiens, UniProt Q8TD08); settings: read-out: %Inh ERK8
T3 sequence (Q8TD08 1-544): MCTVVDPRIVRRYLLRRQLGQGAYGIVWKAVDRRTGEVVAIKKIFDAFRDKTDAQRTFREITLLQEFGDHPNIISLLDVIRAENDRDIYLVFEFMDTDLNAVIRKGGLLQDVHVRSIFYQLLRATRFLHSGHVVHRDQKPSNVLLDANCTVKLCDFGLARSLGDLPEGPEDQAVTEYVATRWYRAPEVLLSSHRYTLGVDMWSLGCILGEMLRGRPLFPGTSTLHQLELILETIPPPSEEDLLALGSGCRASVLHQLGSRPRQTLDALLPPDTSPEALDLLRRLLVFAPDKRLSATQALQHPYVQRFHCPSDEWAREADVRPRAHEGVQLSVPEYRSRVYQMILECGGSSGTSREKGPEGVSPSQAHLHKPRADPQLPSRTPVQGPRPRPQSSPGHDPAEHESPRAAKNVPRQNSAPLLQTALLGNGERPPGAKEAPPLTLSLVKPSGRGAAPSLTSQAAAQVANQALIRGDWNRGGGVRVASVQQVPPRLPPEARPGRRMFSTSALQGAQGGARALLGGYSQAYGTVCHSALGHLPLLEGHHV

DMPK = target: T4, DMPK (Homo sapiens, UniProt Q09013); settings: read-out: %Inh DMPK
T4 sequence (Q09013 1-629): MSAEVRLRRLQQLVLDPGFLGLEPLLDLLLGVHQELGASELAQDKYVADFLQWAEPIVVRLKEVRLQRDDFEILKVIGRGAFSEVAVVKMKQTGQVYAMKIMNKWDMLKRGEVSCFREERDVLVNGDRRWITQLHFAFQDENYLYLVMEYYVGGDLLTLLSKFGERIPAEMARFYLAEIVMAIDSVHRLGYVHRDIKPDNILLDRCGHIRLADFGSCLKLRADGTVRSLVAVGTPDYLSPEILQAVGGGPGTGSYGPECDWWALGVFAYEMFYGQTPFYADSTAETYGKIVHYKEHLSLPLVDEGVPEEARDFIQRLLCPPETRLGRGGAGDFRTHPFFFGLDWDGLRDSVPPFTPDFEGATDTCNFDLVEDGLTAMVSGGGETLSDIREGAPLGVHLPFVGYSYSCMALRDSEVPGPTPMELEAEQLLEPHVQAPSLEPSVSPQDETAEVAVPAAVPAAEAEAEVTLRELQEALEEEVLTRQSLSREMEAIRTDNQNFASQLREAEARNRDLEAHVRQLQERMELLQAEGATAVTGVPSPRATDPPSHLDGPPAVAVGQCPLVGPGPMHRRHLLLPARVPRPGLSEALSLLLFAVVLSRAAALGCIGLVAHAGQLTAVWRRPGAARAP

JAK2(JH1domain-catalytic), sequence (O60674 840-1132 limits assumed): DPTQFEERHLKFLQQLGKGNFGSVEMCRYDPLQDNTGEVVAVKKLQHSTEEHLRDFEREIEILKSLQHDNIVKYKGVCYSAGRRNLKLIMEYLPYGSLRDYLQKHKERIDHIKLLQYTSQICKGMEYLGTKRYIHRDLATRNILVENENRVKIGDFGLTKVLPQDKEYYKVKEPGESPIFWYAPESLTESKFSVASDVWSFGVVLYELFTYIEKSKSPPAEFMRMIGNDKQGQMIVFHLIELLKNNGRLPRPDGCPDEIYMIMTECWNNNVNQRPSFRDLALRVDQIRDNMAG
AMPK-alpha1, sequence (Q13131 whole entry): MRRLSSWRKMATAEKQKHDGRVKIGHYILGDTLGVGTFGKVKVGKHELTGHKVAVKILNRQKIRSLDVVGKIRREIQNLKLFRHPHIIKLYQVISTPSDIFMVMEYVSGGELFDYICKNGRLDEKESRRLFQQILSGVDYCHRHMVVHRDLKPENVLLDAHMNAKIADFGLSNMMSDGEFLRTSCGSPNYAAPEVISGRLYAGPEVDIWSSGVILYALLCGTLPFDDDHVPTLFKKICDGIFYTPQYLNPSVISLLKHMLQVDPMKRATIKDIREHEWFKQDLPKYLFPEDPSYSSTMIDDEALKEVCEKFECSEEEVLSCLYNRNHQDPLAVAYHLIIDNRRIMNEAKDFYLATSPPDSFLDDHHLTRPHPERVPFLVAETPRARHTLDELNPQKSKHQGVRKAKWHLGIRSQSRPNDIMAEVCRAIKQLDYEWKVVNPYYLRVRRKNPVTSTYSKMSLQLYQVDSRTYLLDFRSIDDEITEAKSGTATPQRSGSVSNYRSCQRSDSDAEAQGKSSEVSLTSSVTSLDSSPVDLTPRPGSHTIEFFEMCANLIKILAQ
FAK, sequence (Q05397 whole entry): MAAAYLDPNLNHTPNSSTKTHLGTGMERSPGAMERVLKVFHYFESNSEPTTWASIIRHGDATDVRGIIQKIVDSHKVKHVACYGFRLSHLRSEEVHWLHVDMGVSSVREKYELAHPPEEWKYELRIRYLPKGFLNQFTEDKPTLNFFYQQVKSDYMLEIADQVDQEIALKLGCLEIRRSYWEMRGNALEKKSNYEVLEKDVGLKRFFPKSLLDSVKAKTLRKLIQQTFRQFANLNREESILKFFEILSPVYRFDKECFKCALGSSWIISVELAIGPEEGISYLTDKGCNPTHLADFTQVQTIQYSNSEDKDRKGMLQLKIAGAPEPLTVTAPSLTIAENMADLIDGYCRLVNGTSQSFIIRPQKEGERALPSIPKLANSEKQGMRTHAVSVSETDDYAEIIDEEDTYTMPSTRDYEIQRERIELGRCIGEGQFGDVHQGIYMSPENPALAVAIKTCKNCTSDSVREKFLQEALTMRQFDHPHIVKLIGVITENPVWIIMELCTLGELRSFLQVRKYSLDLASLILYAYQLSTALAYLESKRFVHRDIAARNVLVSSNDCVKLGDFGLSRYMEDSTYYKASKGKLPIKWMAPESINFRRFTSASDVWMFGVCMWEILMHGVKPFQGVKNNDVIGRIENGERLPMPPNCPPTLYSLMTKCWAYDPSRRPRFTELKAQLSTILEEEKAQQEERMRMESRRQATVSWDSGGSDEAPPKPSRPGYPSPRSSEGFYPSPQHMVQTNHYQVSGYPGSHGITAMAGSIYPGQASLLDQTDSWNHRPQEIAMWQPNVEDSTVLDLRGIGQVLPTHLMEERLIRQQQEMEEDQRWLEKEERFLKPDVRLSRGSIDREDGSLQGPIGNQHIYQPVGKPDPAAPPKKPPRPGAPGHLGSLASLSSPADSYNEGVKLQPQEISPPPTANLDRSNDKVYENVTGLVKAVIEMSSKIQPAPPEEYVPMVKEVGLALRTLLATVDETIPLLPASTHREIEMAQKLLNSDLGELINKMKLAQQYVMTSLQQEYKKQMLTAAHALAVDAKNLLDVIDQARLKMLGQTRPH

SMILES	inhibition at 1 µM (FAK)	inhibition at 1 µM (LZK)	inhibition at 1 µM (AMPK-alpha1)	inhibition at 1 µM [1]	inhibition at 1 µM (CHEK1)	inhibition at 1 µM (ERK8)	inhibition at 1 µM (DMPK)
COc1cccc(OC)c1C(=O)Nc1cccc(-c2nn3ccccc3c2-c2ccnc(Nc3cccc(F)c3)n2)c1 [UNC10225310A]	1%	8%	25%	3%	13%	3%	2%
Cc1ccc(NC(=O)Nc2cccc(C(F)(F)F)c2)cc1 [UNC10225187A]	1%	0%	0%	0%	5%	0%	0%
O=c1cc(N2CCOCC2)nc2n(Cc3cccc(Cl)c3Cl)c(C3CC3)nn12 [UNC10225469A]	0%	0%	5%	6%	15%	13%	0%
CS(=O)(=O)Cc1ccc(Nc2nccc(-c3c(-c4cccc(NC(=O)C5CCCCC5)c4)nn4ncccc34)n2)cc1 [UNC10225159A]	0%	0%	2%	16%	12%	0%	0%
Cn1cc(-c2cnc(N)c3c(-c4ccc5c(c4)CCN5C(=O)Cc4ccccc4)csc23)cn1 [UNC10225012A]	7%	0%	17%	26%	9%	11%	0%
